Reference: ChEMBL document CHEMBL1201862, “PubChem BioAssay data set” (2004)
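Step 1: Grow cells in 96-well plates. Step 2: Expose to compound for 48 hours at 5 concentrations. Step 3: Interpolate endpoints linearly; if unreached, use highest concentration. GI50 = concentration required for 50% inhibition of growth.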 Activity calls are given as the source filed them. Cut-off read from the data, not from the text of the source: active = GI50 up to about 1.1 µM and inactive = higher.

Experiments:
Test in all cases: NCI tumour cell line growth inhibition, 48 h
COLO 205 = tested on: COLO 205
DU-145 = tested on: DU-145
HCT-116 = tested on: HCT-116
HOP-62 = tested on: HOP-62
HOP-92 = tested on: HOP-92
K562 = tested on: K562
KM12 = tested on: KM12
LOX IMVI = tested on: LOX IMVI
MDA-MB-435 = tested on: MDA-MB-435
NCI-H226 = tested on: NCI-H226
NCI-H460 = tested on: NCI-H460
NCI-H522 = tested on: NCI-H522
NCI/ADR-RES = tested on: NCI/ADR-RES
OVCAR-3 = tested on: OVCAR-3
OVCAR-4 = tested on: OVCAR-4
PC-3 = tested on: PC-3
SF-539 = tested on: SF-539
SK-MEL-2 = tested on: SK-MEL-2
SNB-19 = tested on: SNB-19
SR = tested on: SR

Measured: GI50

COc1cc2c(cc1O)CCN[C@@]21CS[C@H]2c3c(OC(C)=O)c(C)c4c(c3C(COC1=O)N1C2C2c3c(cc(C)c(OC)c3O)CC([C@@H]1O)N2C)OCO4 (some centres undefined)
active: COLO 205 < 0.0001 µM | DU-145 < 0.0001 µM | HCT-116 0.0001 µM | HOP-62 < 0.0001 µM | HOP-92 < 0.0001 µM | K562 0.000324 µM | KM12 < 0.0001 µM | LOX IMVI < 0.0001 µM | MDA-MB-435 < 0.0001 µM | NCI-H226 < 0.0001 µM | NCI-H460 < 0.0001 µM | NCI-H522 < 0.0001 µM | NCI/ADR-RES 0.0001 µM | OVCAR-3 < 0.0001 µM | OVCAR-4 < 0.0001 µM | PC-3 < 0.0001 µM | SF-539 < 0.0001 µM | SK-MEL-2 < 0.0001 µM | SNB-19 < 0.0001 µM | SR < 1e-06 µM

O=S(=O)(O)n1ccnc1
inactive: COLO 205 > 100 µM | DU-145 > 100 µM | HCT-116 > 100 µM | HOP-62 > 100 µM | HOP-92 > 100 µM | K562 > 100 µM | KM12 > 100 µM | LOX IMVI > 100 µM | MDA-MB-435 > 100 µM | NCI-H226 > 100 µM | NCI-H460 > 100 µM | NCI-H522 > 100 µM | NCI/ADR-RES > 100 µM | OVCAR-3 > 100 µM | OVCAR-4 > 100 µM | PC-3 > 100 µM | SF-539 > 100 µM | SK-MEL-2 77.3 µM | SNB-19 > 100 µM | SR > 100 µM

O=C(CNc1nccs1)Nn1cnc2ccc(S(=O)(=O)Nc3nccs3)cc2c1=O
inactive: COLO 205 > 100 µM | DU-145 > 100 µM | HCT-116 > 100 µM | HOP-62 > 100 µM | HOP-92 > 100 µM | K562 > 100 µM | KM12 > 100 µM | LOX IMVI > 100 µM | MDA-MB-435 > 100 µM | NCI-H226 > 100 µM | NCI-H460 > 100 µM | NCI-H522 > 100 µM | NCI/ADR-RES > 100 µM | OVCAR-3 > 100 µM | OVCAR-4 > 100 µM | PC-3 > 100 µM | SF-539 > 100 µM | SK-MEL-2 > 100 µM | SNB-19 > 100 µM | SR 35.6 µM

CC1=C2C(=O)c3ccccc3C(=O)[C@H]2C[C@@H](N2CCCCCC2=O)O1
inactive: COLO 205 17.3 µM | DU-145 18.3 µM | HOP-62 19 µM | HOP-92 19.4 µM | K562 19.8 µM | KM12 16.7 µM | LOX IMVI 17.3 µM | MDA-MB-435 16 µM | NCI-H226 30.5 µM | NCI-H460 18.8 µM | NCI-H522 19.9 µM | NCI/ADR-RES 22.3 µM | OVCAR-3 18 µM | OVCAR-4 17.2 µM | PC-3 17.9 µM | SF-539 19 µM | SK-MEL-2 23.1 µM | SNB-19 21 µM | SR 6.92 µM

COc1ccc(-c2cc3cc(Cl)cc(Cl)c3oc2=O)cc1OC
inactive: COLO 205 > 100 µM | DU-145 > 100 µM | HCT-116 31.6 µM | HOP-62 40 µM | HOP-92 46.6 µM | K562 33.3 µM | KM12 31.6 µM | LOX IMVI > 100 µM | MDA-MB-435 65 µM | NCI-H226 43.9 µM | NCI-H460 36.7 µM | NCI-H522 36.1 µM | NCI/ADR-RES 56.9 µM | OVCAR-3 29.4 µM | OVCAR-4 32.8 µM | PC-3 46.9 µM | SF-539 81.7 µM | SK-MEL-2 > 100 µM | SNB-19 28.2 µM | SR 82 µM

C=CCOC(=O)C1=C(C)N=C2N[C@H](CCCCCCCCC)C[C@@H]3CCC1N23 (some centres undefined)
inactive: COLO 205 21.3 µM | DU-145 27.4 µM | HCT-116 18.8 µM | HOP-62 30.5 µM | HOP-92 19.3 µM | K562 30.3 µM | KM12 34 µM | LOX IMVI 21.6 µM | MDA-MB-435 20.3 µM | NCI-H226 17.9 µM | NCI-H460 25.4 µM | NCI-H522 16.7 µM | NCI/ADR-RES 22.8 µM | OVCAR-3 19.4 µM | OVCAR-4 21 µM | PC-3 21.6 µM | SF-539 19 µM | SK-MEL-2 19.8 µM | SNB-19 19.2 µM | SR 28.4 µM

Nc1cc(-c2ccc(Cl)cc2)nn1-c1nc2ccccc2nc1-c1ccccc1
inactive: COLO 205 > 100 µM | DU-145 > 100 µM | HCT-116 > 100 µM | HOP-62 49 µM | HOP-92 56 µM | K562 > 100 µM | KM12 > 100 µM | LOX IMVI > 100 µM | MDA-MB-435 > 100 µM | NCI-H226 > 100 µM | NCI-H460 > 100 µM | NCI-H522 > 100 µM | NCI/ADR-RES > 100 µM | OVCAR-3 65 µM | OVCAR-4 56.8 µM | PC-3 22.2 µM | SF-539 95.9 µM | SK-MEL-2 59.7 µM | SNB-19 47.8 µM | SR 71.8 µM
